From patent US5545617A, “Therapeutic regulation of abnormal conjunctival goblet cell mucous secretion” (The Schepens Eye Research Institute, Inc., priority 1993, dated 1996)
“And” between values parts separate entries of the source, which are not always exact repeats. Identical values can stand only once. Counter-ions that a name gives are not always drawn. Like-named read-outs stand apart in the source and are kept apart here.

What was measured:
[1] = system: conjunctival goblet cell mucous secretion; conditions: cited from earlier work
[2] = system: conjunctival goblet cell mucous secretion; conditions: 100 μg topical, rabbits, cited from earlier work
[3] = system: conjunctival goblet cell mucous secretion; test: in vivo rat model: topical agents, density of mucin-containing goblet cells (alcian blue/PAS);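 on all read-outs here: rat eyes dosed topically with 20 µl drops every 20 min over 1 hr, non-secreted goblet cells counted in three 0.16 mm^2 conjunctival areas, lower density means more mucous secretion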; conditions: for (Stimulus) Optimal Effective Conc. (M): Table 1; for (Stimulus) Max % Increase in Secretion: Table 1, at optimal effective conc.; for conjunctival goblet cell mucous secretion (in words): topical application, summary of Example II; for concentration giving the maximum effect on goblet cell density: topical; for goblet cell mucous secretion (in words): summary of Example I
Protocol: Thus, the in vivo rat model can be used to study conjunctival goblet cell mucous secretion. With this model, the ocular surface of anesthetized rats is treated topically or subconjunctivally. After treatment, the animals are euthanized, the ocular surface is fixed, conjunctival tissue is removed and mucus in the secretory granules of goblet cells stained with alcian blue and periodic acid-Schiff's (PAS) reagents to indicate mucin-containing goblet cells. The number of mucin-containing goblet cells is then determined. A decrease in the number of mucin-containing goblet cells indicates an increase in goblet cell secretion.
To determine the effect of topically applied solutions, experimental solutions (20 μl drops) were placed on each eye from the temporal region every 20 min for 1 hr. The solutions were carefully removed with a cotton-tipped applicator from the nasal region of the eyes before placement of the next drop or before euthanization. […] Because conjunctival goblet cell density is not uniform throughout the conjunctiva, care was taken to use a specific area for sampling. […] Conjunctival buttons were then dissected and tissue placed epithelial side up on gelatin-coated, glass microscope slides. […] Mucin contained in the secretory granules of the goblet cells was stained with alcian blue and periodic acid-Schiff (PAS) stain (79). The number of mucin-containing goblet cells was counted in a masked fashion using light microscopy (standard Zeiss microscope) at 160× magnification. The density of mucin-containing goblet cells was determined by averaging counts of goblet cells in three 0.16 mm^2 areas in each button. A decrease in mucin containing goblet cell number per unit area (density) indicated an increase in mucous secretion.
The mucin-containing goblet cells stained purple and fuchsia with alcian blue and PAS, respectively. By focusing through the tissue, cells with moderate to intense staining and sharp, defined cell borders were considered non-secreted and were counted. Cells with very light stain, absence of color, indistinguishable color from background staining and fuzzy borders were considered cells that had secreted mucus and were not counted. Following these criteria, the non-secreted mucin-containing goblet cells in the three 0.16 mm^2 areas were counted, averaged and expressed as mucin-containing goblet cell density. Therefore, a decrease in mucin-containing goblet cell density indicated mucous secretion.
To determine the effect of topically applied compounds, an experimental buffer containing the test compound (20 μl drops) was placed on one eye from the temporal region every 20 min for 1 hr unless otherwise indicated. […] The solutions were removed from the nasal region of the eye with a cotton-tipped applicator. After the 1 hr protocol, animals were euthanized with sodium pentobarbital.

[4] = system: conjunctival goblet cell mucous secretion; test: local anesthetics on sensory stimulation (corneal debridement) of goblet cell mucous secretion; assay type: in vivo, rat
Protocol: Rats were anesthetized with sodium pentobarbital (65 mg/kg).
Fifteen min after application of local anesthetic, the central cornea of one eye was wounded by debridement (2-3 mm diameter area), the other was sham-debrided and 5 min later the animal was euthanized with intraperitoneal sodium pentobarbital ([…]).

[5] = system: conjunctival goblet cells; test: light microscopy of H and E stained conjunctival sections after topical lidocaine; assay type: in vivo, rat; conditions: 1% topical
Protocol: The globe of the eye was excised. The posterior half of the globe was removed, followed by removal of the lens and iris. The remaining tissue (the ocular surface) including the cornea, the limbus, and the bulbar conjunctiva was frozen in O. C. T. Compound (Miles Inc., Elkart, Ind.).
Tissue sections (20 μm) were prepared from the ocular surface and stained with hematoxylin and eosin (H and E). Sections were examined using an Olympus Microscope (BH-2; Micro-Tech Optical, Inc., Hudson, Mass.).

[6] = system: conjunctival goblet cell density; conditions: long term exposure of rabbit ocular surface; cited from earlier work
[7] = 10^-8 M topical, 1 hr, inferior conjunctiva
[8] = 10^-4 M topical, 1 hr, inferior conjunctiva
[9] = 10^-8 M topical, 1 hr, Example II

Nc1ncnc2c1nc(Br)n2[C@@H]1O[C@@H]2COP(=O)(O)O[C@H]2[C@H]1O [8-Br-cAMP]
mucin discharge [1]: unaffected

Nc1nc2c(nc(Br)n2[C@@H]2O[C@@H]3COP(=O)(O)O[C@H]3[C@H]2O)c(=O)[nH]1 [8-Br-cGMP]
mucin discharge [1]: 2-3 fold

CCCC[C@H](C)C(O)C#CC1CCC(=O)C1C/C=C\CCCC(=O)OC (stereo partly drawn) [FCE20700, 11-deoxy-13,14-didehydro-16(S)-methylester methyl PGE2]
goblet cells with mucous secretion ([2]; 0.5 hr): 86.9%
goblet cells with mucous secretion ([2]; 2.5 hr): 90.3%

C[N+](C)(C)CCOC(N)=O.[Cl-] [carbachol, carbamyl choline chloride]
effect on mucin-containing goblet cell density ([3]; 10^-5 -10^-4 M topical): not at 10^-5 -10^-4 M
decrease in mucin-containing goblet cell density from contralateral control eye ([3]; 10^-6 M topical, 1 hr): 40%
effect on mucin-containing goblet cell density ([3]; 10^-7 M topical): decreased mucin-containing goblet cell density
(Stimulus) Optimal Effective Conc. (M) [3]: 10^-6 M
(Stimulus) Max % Increase in Secretion [3]: 41%
conjunctival goblet cell mucous secretion (in words) [3]: stimulate conjunctival goblet cell mucous secretion
concentration giving the maximum effect on goblet cell density ([3]; 1 hr, Example II): 10^-6 M

CCCCC(C)(C)[C@H](O)/C=C/[C@H]1[C@H](O)CC(=O)[C@@H]1C/C=C\CCCC(=O)O [dmPGE2, 16,16-dimethyl-prostaglandin E2]
mucin-containing goblet cell density, inferior bulbar conjunctiva ([3]; 1 μM topical, 1 hr, vs control): did not differ significantly from control values
mucin-containing goblet cell density, inferior bulbar conjunctiva ([3]; 10 μM topical, 1 hr, vs control): did not differ significantly from control values
decrease in mucin-containing goblet cell density from buffer-treated eyes ([3]; 100 μM topical, 1 hr, inferior conjunctiva): 30% and 39%
mucin-containing goblet cell density, inferior bulbar conjunctiva ([3]; 100 μM topical, 1 hr, mean±SE): 36±12 goblet cells/0.16 mm^2
goblet cell mucous secretion (in words) ([3]; 100 μM topical): increased goblet cell mucous secretion from inferior but not superior conjunctiva
mucin-containing goblet cell density, superior bulbar conjunctiva ([3]; 100 μM, 10 μM, 1 μM topical, 1 hr, vs contralateral control or buffer-treated eyes): Neither 100 μM, 10 μM, nor 1 μM dmPGE2 significantly altered the density
electron microscopy of goblet cells, inferior bulbar conjunctiva ([3]; 600 μM (FIG. 5B)): the goblet cells secreted mucous onto the ocular surface

NCCc1ccc(O)c(O)c1 [dopamine, 3-hydroxytyramine]
decrease in mucin-containing goblet cell density from contralateral control [3, 7]: 64%
(Stimulus) Optimal Effective Conc. (M) [3]: 10^-8 M
(Stimulus) Max % Increase in Secretion [3]: 64%
conjunctival goblet cell mucous secretion (in words) [3]: stimulate conjunctival goblet cell mucous secretion
concentration giving the maximum effect on goblet cell density ([3]; 1 hr, Example II): 10^-8 M

CNC[C@H](O)c1ccc(O)c(O)c1 [epinephrine, (-)-epinephrine]
electron microscopy of goblet cells, inferior bulbar conjunctiva ([3]; 1 μM (FIG. 5D)): some of the goblet cells secreted mucus onto the ocular surface in an all or none fashion
goblet cell mucous secretion (in words) ([3]; 100 μM topical): stimulated mucous secretion
decrease in mucin-containing goblet cell density from contralateral control [3, 8]: 46%
mucin-containing goblet cell density, inferior conjunctiva ([3]; 10^-4 M topical, 1 hr, Example I, P<0.04 vs buffer): 159±35 cells
mucin-containing goblet cell density, inferior conjunctiva ([3]; 10^-6 M topical, 1 hr, Example I, unchanged vs buffer): 200±33 cells
mucin-containing goblet cell density, inferior conjunctiva ([3]; 10^-8 M topical, 1 hr, Example I, unchanged vs buffer): 180±55 cells
(Stimulus) Optimal Effective Conc. (M) [3]: 10^-2 M
(Stimulus) Max % Increase in Secretion [3]: 52%
conjunctival goblet cell mucous secretion (in words) [3]: stimulate conjunctival goblet cell mucous secretion
concentration giving the maximum effect on goblet cell density ([3]; 1 hr, Example II): 10^-4 M

CCN(CC)CC(=O)Nc1c(C)cccc1C [lidocaine, lidocaine hydrochloride]
effect on sensory stimulation of mucous secretion ([4]; 1% sub-conjunctival injection alone): inhibited sensory stimulation of mucous secretion
mucin-containing goblet cells in treated, wounded eyes ([4]; 1% sub-conjunctival injection prior to the wound): 100±28 cells
mucin-containing goblet cells in treated, contralateral sham-wounded eyes ([4]; 1% sub-conjunctival injection, sham-wounded): 98±24 cells
effect on sensory stimulation of mucous secretion ([4]; 1% topical alone): inhibited sensory stimulation of mucous secretion
effect on sensory stimulation of mucous secretion ([4]; 1% topical and sub-conjunctival injection): inhibited the sensory stimulation of goblet cell mucous secretion
mucin-containing goblet cells in treated, contralateral sham-wounded eyes ([4]; 1% topical and sub-conjunctival injection, sham-wounded): 110±25 cells
mucin-containing goblet cells in treated, wounded eyes ([4]; 1% topical and sub-conjunctival injection, then wounded): 132±21 cells
mucin-containing goblet cells in treated, wounded eyes ([4]; 1% topical prior to the wound): 84±7 cells
mucin-containing goblet cells in treated, sham-wounded eyes ([4]; 1% topical, sham-wounded): 78±5 cells
goblet cells detected in H- and E-stained sections ([5]; 5 min (FIG. 6B)): some goblet cells
goblet cells detected in H- and E-stained sections ([5]; 10 min (FIG. 6C)): numerous goblet cells

CNC[C@H](O)c1cccc(O)c1 [phenylephrine, L-phenylephrine hydrochloride]
conjunctival goblet cell density [6]: does not significantly affect conjunctival goblet cell density
decrease in mucin-containing goblet cell density from contralateral control [3, 8]: 40%
(Stimulus) Optimal Effective Conc. (M) [3]: 10^-4 M
(Stimulus) Max % Increase in Secretion [3]: 40%
conjunctival goblet cell mucous secretion (in words) [3]: stimulate conjunctival goblet cell mucous secretion
concentration giving the maximum effect on goblet cell density ([3]; 1 hr, Example II): 10^-4 M

CCCOc1ccc(C(=O)OCCN(CC)CC)cc1N [proparacaine, Proparacaine hydrochloride]
inhibition of sensory stimulation of mucous secretion ([4]; 0.5% topical, 15 min before corneal debridement): unable to inhibit sensory stimulation of mucous secretion

NCCc1c[nH]c2ccc(O)cc12 [serotonin, 5-hydroxytryptamine]
decrease in mucin-containing goblet cell density from contralateral control [3, 7]: 54%
mucin-containing goblet cell density, inferior conjunctiva [3, 9]: 148±27 cells
(Stimulus) Optimal Effective Conc. (M) [3]: 10^-8 M
(Stimulus) Max % Increase in Secretion [3]: 54%
conjunctival goblet cell mucous secretion (in words) [3]: stimulate conjunctival goblet cell mucous secretion
concentration giving the maximum effect on goblet cell density ([3]; 1 hr, Example II): 10^-8 M

Substance P
decrease in mucin-containing goblet cell density from contralateral control eye ([3]; 10^-6 M topical, 1 hr): 58%
mucin-containing goblet cell density ([3]; 10^-6 M topical, 1 hr, Example II): 77±18 cells
effect on mucin-containing goblet cell density ([3]; 10^-10 or 10^-8 M topical): not at 10^-10 or 10^-8 M
(Stimulus) Optimal Effective Conc. (M) [3]: 10^-6 M
(Stimulus) Max % Increase in Secretion [3]: 42%
conjunctival goblet cell mucous secretion (in words) [3]: stimulate conjunctival goblet cell mucous secretion

Vasoactive Intestinal Peptide [VIP]
decrease in mucin-containing goblet cell density from contralateral control [3, 7]: 39%
mucin-containing goblet cell density, inferior conjunctiva [3, 9]: 150±23 cells
(Stimulus) Optimal Effective Conc. (M) [3]: 10^-8 M
(Stimulus) Max % Increase in Secretion [3]: 39%
conjunctival goblet cell mucous secretion (in words) [3]: stimulate conjunctival goblet cell mucous secretion
concentration giving the maximum effect on goblet cell density ([3]; 1 hr, Example II): 10^-8 M
